Reference: US20260306476A1, “ANTIBACTERIAL COMPOUND PBT2” (priority 2022, published 2026)
“Also recorded” adds a separate entry of the source.

Assays:
[1] = tested on: Neisseria gonorrhoeae MS11; assay: MIC of PBT2 alone (broth and agar); format: cell-based
Source text: (§1) 13 multidrug resistant WHO strains of Neisseria gonorrhoeae were selected to cover antimicrobial resistance phenotypes to all the antibiotics currently used. MS11 is a laboratory strain and ATCC49226 is a CLSI standard MIC control strain (CLSI. 2022. Performance Standards for Antimicrobial Susceptibility Testing, 32nd Edition. Clinical and Laboratory Standards Institute which is hereby incorporated by reference in its entirety). The MICs (minimum inhibitory concentration) of PBT2 alone in the absence of zinc or a further antimicrobial agent against these Neisseria gonorrhoea strains are summarised in Table 1.

[2] = tested on: Neisseria gonorrhoeae WHO C; assay: MIC of PBT2 alone (broth and agar); format: cell-based
Source text: as §1

[3] = tested on: Neisseria gonorrhoeae WHO E; assay: MIC of PBT2 alone (broth and agar); format: cell-based
Source text: as §1

[4] = tested on: Neisseria gonorrhoeae WHO F; assay: MIC of PBT2 alone (broth and agar); format: cell-based
Source text: as §1

[5] = tested on: Neisseria gonorrhoeae WHO G; assay: MIC of PBT2 alone (broth and agar); format: cell-based
Source text: as §1

[6] = tested on: Neisseria gonorrhoeae WHO K; assay: MIC of PBT2 alone (broth and agar); format: cell-based
Source text: as §1

[7] = tested on: Neisseria gonorrhoeae WHO L; assay: MIC of PBT2 alone (broth and agar); format: cell-based
Source text: as §1

[8] = tested on: Neisseria gonorrhoeae WHO M; assay: MIC of PBT2 alone (broth and agar); format: cell-based
Source text: as §1

[9] = tested on: Neisseria gonorrhoeae WHO N; assay: MIC of PBT2 alone (broth and agar); format: cell-based
Source text: as §1

[10] = tested on: Neisseria gonorrhoeae WHO O; assay: MIC of PBT2 alone (broth and agar); format: cell-based
Source text: as §1

[11] = tested on: Neisseria gonorrhoeae WHO P; assay: MIC of PBT2 alone (broth and agar); format: cell-based
Source text: as §1

[12] = tested on: Neisseria gonorrhoeae WHO X; assay: MIC of PBT2 alone (broth and agar); format: cell-based
Source text: as §1

[13] = tested on: Neisseria gonorrhoeae WHO Y; assay: MIC of PBT2 alone (broth and agar); format: cell-based
Source text: as §1

[14] = tested on: Neisseria gonorrhoeae WHO Z; assay: MIC of PBT2 alone (broth and agar); format: cell-based
Source text: as §1

[15] = tested on: Neisseria gonorrhoeae ATCC49226; assay: MIC of PBT2 and comparators against CLSI reference strain; format: cell-based
Source text: 13 multidrug resistant WHO strains of Neisseria gonorrhoeae were selected to cover antimicrobial resistance phenotypes to all the antibiotics currently used.

[16] = tested on: non-typeable Haemophilus influenzae (NTHi) 2019; assay: MIC of PBT2 alone (broth); format: cell-based
Procedure: (§2) The MIC of PBT2 against five non-typeable Haemophilus influenzae (NTHi) strains was determined (CLSI. 2022. Performance Standards for Antimicrobial Susceptibility Testing, 32nd Edition. Clinical and Laboratory Standards Institute).

[17] = tested on: non-typeable Haemophilus influenzae (NTHi) 723; assay: MIC of PBT2 alone (broth); format: cell-based
Procedure: as §2

[18] = tested on: non-typeable Haemophilus influenzae (NTHi) 86-028NP; assay: MIC of PBT2 alone (broth); format: cell-based
Procedure: as §2

[19] = tested on: non-typeable Haemophilus influenzae (NTHi) ATCC49766; assay: MIC of PBT2 alone (broth); format: cell-based
Procedure: as §2

[20] = tested on: non-typeable Haemophilus influenzae (NTHi) R2866; assay: MIC of PBT2 alone (broth); format: cell-based
Procedure: as §2

Campylobacter jejuni = assay: Sensitivity across Campylobacter jejuni strains; format: cell-based; details: all strains tested
Procedure: The MIC of PBT2 against three Campylobacter jejuni strains was determined. All strains tested were sensitive to PBT2.

[21] = tested on: Helicobacter pylori CH428; assay: MIC of PBT2 alone (agar); format: cell-based
Helicobacter pylori = assay: Sensitivity across Helicobacter pylori strains; format: cell-based; details: strains tested
Procedure: The MIC of PBT2 against four Helicobacter pylori 26695 strains was determined. The strains tested were sensitive to PBT2.

Neisseria gonorrhoeae = assay: Antibiotic resistance development test over 30 days; format: cell-based; details: 30 days of daily subculture; sub-MIC PBT2 (0.156 mg/L)
Procedure: FIG. 2: Antibiotic resistance development assay of PBT2.
Resistance development was tested over a 30 day period with PBT2 and using Kanamycin as a control.

[22] = tested on: Streptococcus uberis (S. uberis); details: in the absence of an antibiotic; cited from earlier work
[23] = tested on: methicillin-resistant Staphylococcus aureus (MRSA); details: in the absence of an antibiotic; cited from earlier work
[24] = tested on: Neisseria meningitidis 8013 (C); assay: MIC of PBT2 (broth and agar)
[25] = tested on: Neisseria meningitidis PMC1 (X); assay: MIC of PBT2 (broth and agar)
[26] = tested on: Neisseria meningitidis PMC19 (W); assay: MIC of PBT2 (broth and agar)

## CN(C)Cc1ccc2c(Cl)cc(Cl)c(O)c2n1 [PBT2, 5,7-dichloro-2-[(dimethylamino)methyl]quinolin-8-ol]
[1]; agar
  MIC: 0.625 µg/mL
[1]; broth
  MIC: 0.156 µg/mL
[2]; agar
  MIC: 0.625 µg/mL
[2]; broth
  MIC: 0.312 µg/mL
[3]; agar
  MIC: 0.312 µg/mL
[3]; broth
  MIC: 0.156 µg/mL
[4]; agar
  MIC: 0.312 µg/mL
[4]; broth
  MIC: 0.156 µg/mL
[5]; agar
  MIC: 0.312 µg/mL
[5]; broth
  MIC: 0.156 µg/mL
[6]; agar
  MIC: 0.625 µg/mL
[6]; broth
  MIC: 0.312 µg/mL
[7]; agar
  MIC: 0.625 µg/mL
[7]; broth
  MIC: 0.156 µg/mL
[8]; agar
  MIC: 0.625 µg/mL
[8]; broth
  MIC: 0.312 µg/mL
[9]; agar
  MIC: 0.625 µg/mL
[9]; broth
  MIC: 0.156 µg/mL
[10]; agar
  MIC: 0.625 µg/mL
[10]; broth
  MIC: 0.156 µg/mL
[11]; agar
  MIC: 0.625 µg/mL
[11]; broth
  MIC: 0.312 µg/mL
[12]; agar
  MIC: 0.625 µg/mL
[12]; broth
  MIC: 0.156 µg/mL
[13]; agar
  MIC: 0.625 µg/mL
[13]; broth
  MIC: 0.156 µg/mL
[14]; MIC concentration used in time-kill assay
  MIC: 0.313 µg/mL
[14]; agar
  MIC: 0.625 µg/mL
[14]; broth
  MIC: 0.312 µg/mL
[15]; ATCC49226, ATCC49226, agar
  MIC: 0.625 µg/mL
[15]; ATCC49226, ATCC49226, broth
  MIC: 0.312 µg/mL
[16]
  MIC: 2.5 µg/mL
[17]
  MIC: 1.25 µg/mL
[18]
  MIC: 2.5 µg/mL
[19]
  MIC: 0.312 µg/mL
[20]
  MIC: 2.5 µg/mL
Campylobacter jejuni
  sensitivity: sensitive
[21]
  MIC: 2.5 µg/mL
Helicobacter pylori
  sensitivity: sensitive
Neisseria gonorrhoeae
  antibiotic resistance development: No antibiotic resistance was observed; also recorded: no visible development of resistance
[22]
  antibacterial activity: neither PBT2 nor zinc alone displayed antibacterial activity which would be suitable to treat an infection
[23]
  antibacterial activity: neither PBT2 nor zinc alone displayed antibacterial activity which would be suitable to treat an infection
[24]; agar
  MIC: 0.078 µg/mL
[24]; broth
  MIC: 0.156 µg/mL
[25]
  MIC: 0.039 µg/mL
[26]; agar
  MIC: 0.078 µg/mL
[26]; broth
  MIC: 0.156 µg/mL
